Results from PMC6199744, “Development of Chemical Proteomics for the Folateome and Analysis of the Kinetoplastid Folateome” (ACS Infectious Diseases, 2018).
Where two headings read alike, the source gives them in different places.

How the values were obtained:
Format in all cases: binding
[1] = biological target: T1, HeLa cell extract proteins (Homo sapiens, UniProt O60232)
T1 construct: endogenous in cells; host or cells: HeLa cell extract
T1 sequence (O60232 1-199): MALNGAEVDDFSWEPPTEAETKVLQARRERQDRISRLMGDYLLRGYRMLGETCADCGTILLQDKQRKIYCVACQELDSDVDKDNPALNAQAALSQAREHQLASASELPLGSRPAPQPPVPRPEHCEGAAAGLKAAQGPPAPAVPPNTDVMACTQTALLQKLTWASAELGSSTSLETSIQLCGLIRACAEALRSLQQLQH

[2] = biological target: T2, HeLa cell extract proteins (Homo sapiens, UniProt P30049)
T2 construct: endogenous in cells; host or cells: HeLa cell extract
T2 sequence (P30049 23-168): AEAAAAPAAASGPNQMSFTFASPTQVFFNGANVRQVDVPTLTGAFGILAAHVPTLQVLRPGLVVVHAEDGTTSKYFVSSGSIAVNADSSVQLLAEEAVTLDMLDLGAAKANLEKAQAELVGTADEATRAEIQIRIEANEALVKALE

[3] = biological target: T3, HeLa cell extract proteins (Homo sapiens, UniProt Q9P2E9)
T3 construct: endogenous in cells; host or cells: HeLa cell extract
T3 sequence (Q9P2E9 1-1410): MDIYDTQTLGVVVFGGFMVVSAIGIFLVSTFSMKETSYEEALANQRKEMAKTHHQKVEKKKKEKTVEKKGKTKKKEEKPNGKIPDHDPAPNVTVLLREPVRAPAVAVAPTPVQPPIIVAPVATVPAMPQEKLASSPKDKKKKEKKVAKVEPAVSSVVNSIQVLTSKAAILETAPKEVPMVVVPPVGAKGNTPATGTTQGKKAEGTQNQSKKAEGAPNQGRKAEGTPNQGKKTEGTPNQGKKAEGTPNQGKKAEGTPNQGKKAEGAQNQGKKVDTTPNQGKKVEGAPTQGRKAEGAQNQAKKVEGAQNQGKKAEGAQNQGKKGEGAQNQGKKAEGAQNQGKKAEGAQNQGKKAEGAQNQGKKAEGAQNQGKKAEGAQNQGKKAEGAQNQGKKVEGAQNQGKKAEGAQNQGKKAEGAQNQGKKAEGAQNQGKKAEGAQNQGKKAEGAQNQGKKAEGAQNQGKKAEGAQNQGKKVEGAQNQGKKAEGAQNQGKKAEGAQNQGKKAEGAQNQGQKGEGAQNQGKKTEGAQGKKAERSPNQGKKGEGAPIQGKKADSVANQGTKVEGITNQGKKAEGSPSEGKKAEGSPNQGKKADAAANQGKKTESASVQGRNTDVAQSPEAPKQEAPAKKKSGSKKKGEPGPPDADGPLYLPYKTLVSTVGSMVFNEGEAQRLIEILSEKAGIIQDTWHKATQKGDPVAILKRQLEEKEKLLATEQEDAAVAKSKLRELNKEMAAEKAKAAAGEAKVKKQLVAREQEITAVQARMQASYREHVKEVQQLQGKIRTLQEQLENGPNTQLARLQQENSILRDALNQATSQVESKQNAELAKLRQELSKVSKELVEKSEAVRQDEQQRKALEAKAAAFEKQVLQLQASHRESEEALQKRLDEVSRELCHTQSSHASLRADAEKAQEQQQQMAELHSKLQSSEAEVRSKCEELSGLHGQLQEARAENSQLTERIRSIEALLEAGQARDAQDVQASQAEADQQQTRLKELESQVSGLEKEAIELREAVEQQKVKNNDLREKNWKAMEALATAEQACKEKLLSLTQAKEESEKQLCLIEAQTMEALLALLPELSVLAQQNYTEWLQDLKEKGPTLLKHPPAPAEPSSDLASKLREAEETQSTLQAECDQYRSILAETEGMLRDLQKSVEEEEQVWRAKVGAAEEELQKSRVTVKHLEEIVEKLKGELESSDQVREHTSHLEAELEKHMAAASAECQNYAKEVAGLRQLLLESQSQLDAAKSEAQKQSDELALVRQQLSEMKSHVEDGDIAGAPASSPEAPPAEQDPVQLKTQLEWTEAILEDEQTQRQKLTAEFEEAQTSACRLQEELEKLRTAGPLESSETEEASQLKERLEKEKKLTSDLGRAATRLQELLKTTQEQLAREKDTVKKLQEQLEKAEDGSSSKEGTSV

[4] = biological target: T4, HeLa cell extract proteins (Homo sapiens, UniProt Q9UNM6)
T4 construct: endogenous in cells; host or cells: HeLa cell extract
T4 sequence (Q9UNM6 1-376): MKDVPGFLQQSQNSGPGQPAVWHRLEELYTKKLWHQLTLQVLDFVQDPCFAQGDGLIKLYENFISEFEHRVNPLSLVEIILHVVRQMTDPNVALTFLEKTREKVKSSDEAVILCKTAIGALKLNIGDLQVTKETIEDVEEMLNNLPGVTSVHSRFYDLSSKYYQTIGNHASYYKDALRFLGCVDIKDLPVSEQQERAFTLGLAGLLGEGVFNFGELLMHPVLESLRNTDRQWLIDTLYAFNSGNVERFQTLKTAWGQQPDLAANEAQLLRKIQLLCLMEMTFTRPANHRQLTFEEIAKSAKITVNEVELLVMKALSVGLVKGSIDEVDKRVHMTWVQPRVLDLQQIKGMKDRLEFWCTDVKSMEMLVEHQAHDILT

[5] = biological target: T5, HeLa cell extract proteins (Homo sapiens, UniProt P09669); details: captured protein COX6C; HeLa
T5 construct: endogenous in cells; host or cells: HeLa cell extract
T5 sequence (P09669 whole entry): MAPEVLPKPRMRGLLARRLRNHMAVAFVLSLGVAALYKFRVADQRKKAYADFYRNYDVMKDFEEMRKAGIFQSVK

[6] = biological target: T6, HeLa cell extract proteins (Homo sapiens, UniProt P12236); details: captured protein SLC25A6; HeLa
T6 construct: endogenous in cells; host or cells: HeLa cell extract
T6 sequence (P12236 1-298): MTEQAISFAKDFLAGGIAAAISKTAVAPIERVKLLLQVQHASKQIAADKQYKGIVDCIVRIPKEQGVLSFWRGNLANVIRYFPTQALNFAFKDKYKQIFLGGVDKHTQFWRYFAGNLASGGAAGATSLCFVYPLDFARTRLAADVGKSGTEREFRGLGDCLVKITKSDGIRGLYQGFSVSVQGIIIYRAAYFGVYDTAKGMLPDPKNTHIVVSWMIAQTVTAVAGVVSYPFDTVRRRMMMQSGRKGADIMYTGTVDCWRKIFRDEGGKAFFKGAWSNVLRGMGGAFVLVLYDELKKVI

Compound: Nc1nc2c(c(=O)[nH]1)N(C=O)C(CNc1ccc(C(=O)N[C@@H](CCC(=O)O)C(=O)O)cc1)CN2 (stereo partly shown) [LEU, leucovorin]
- fold changes relative to vehicle control ([1]; protein SSSCA1, HeLa): 0.95
- fold changes relative to vehicle control ([2]; protein ATP5D, HeLa): 0.85
- fold changes relative to vehicle control ([3]; HeLa, protein RRBP1): 1.08
- fold changes relative to vehicle control ([4]; protein PSMD13, HeLa): 0.95

Compound: Nc1nc2[nH]cc(CCc3ccc(C(=O)N[C@@H](CCC(=O)O)C(=O)O)cc3)c2c(=O)[nH]1 [PTX, pemetrexed]
- fold changes relative to vehicle control [1]: 0.94
- fold changes relative to vehicle control [2]: 1.14
- fold changes relative to vehicle control [3]: 1.03
- fold changes relative to vehicle control [4]: 0.88

Compound: CCCCCCOc1ccc(Cc2cnc(N)nc2N)cc1 [compound 1]
- fold changes relative to vehicle control [5]: 0.88
- fold changes relative to vehicle control [6]: 0.98

Compound: CCCCCCOc1cccc(Cc2cnc(N)nc2N)c1 [compound 2]
- fold changes relative to vehicle control [5]: 0.94
- fold changes relative to vehicle control [6]: 1.04

Compound: Nc1nc2cccc(-c3ccccc3)c2n1Cc1ccc(Cl)c(Cl)c1 [compound 3]
- fold changes relative to vehicle control [5]: 1.07
- fold changes relative to vehicle control [6]: 1.01

Compound: NCCOCCOCC(=O)Nc1nc2ncc(CNc3ccc(C(=O)NC(CCC(=O)O)C(=O)O)cc3)nc2c(=O)[nH]1 (stereo not shown) [compound 6]
- fold changes relative to vehicle control ([1]; protein SSSCA1, HeLa): 1.13
- fold changes relative to vehicle control ([2]; protein ATP5D, HeLa): 1.17
- fold changes relative to vehicle control ([3]; HeLa, protein RRBP1): 1.35
- fold changes relative to vehicle control ([4]; protein PSMD13, HeLa): 1.02

Compound: NCCCNc1ccc(C(=O)NC(CCC(=O)O)C(=O)O)cc1 (stereo not shown) [compound 7]
- fold changes relative to vehicle control ([1]; protein SSSCA1, HeLa): 1.07
- fold changes relative to vehicle control ([2]; protein ATP5D, HeLa): 1.2
- fold changes relative to vehicle control ([3]; HeLa, protein RRBP1): 1
- fold changes relative to vehicle control ([4]; protein PSMD13, HeLa): 0.86
